Laboratory results published in patent US20060003410A1, “Prostaglandin reductase” (priority 2004, published 2006).

Assays:
[1] = molecular target: T1, recombinant mouse PGR-2 protein (Mus musculus, UniProt Q8VDQ1); assay: Substrate specificity of PGR-2 (NADPH consumption, absorbance at 490 nm); format: biochemical; settings: 10 μg recombinant mouse PGR-2, 0.5 mM NADPH, substrate replacing 15-keto PGE2, 37° C., 10 minutes
T1 construct: The coding region of PGR-2 open reading frame was then subcloned to the expression vector pCMV-Tag2B; GST (N); made in house; host or cells: E. coli (pGEX-4T-3 vector)
Method: (§1) Mouse PGR-2 was recombinantly expressed in E.coli as a GST fusion protein following standard procedures. The recombinant PGR-2 protein thus obtained was used to determine substrate specificity and enzymatic kinetics.
(§2) Enzymatic activity was determined as follows. 10 μg of the recombinant mouse PGR-2 protein was incubated at 37° C. in a reaction buffer containing 0.1M Tris-HCl (pH7.4), 0.5 mM NADPH, and 0.57 mM 15-keto PGE2. The reaction was conducted at 37° C. in the dark for 10 minutes and terminated by adding 700 μl of a buffer which contained 50 mM potassium hydrogen phthalate, pH 3.0, and 1% Tween 20. 200 μl of a color development reagent, which contained 790 μM indonitrotetrazolium chloride, 60 μM phenazene methosulfate, and 1% Tween 20, was added to oxidize any unreacted NADPH. Absorbance at 490 nm was measured by an ELISA plate reader. A standard curve was generated using reaction buffers containing serially diluted amounts of NADPH.
Substrate specificity of PGR-2 was determined using the just-described procedure, except that 15-keto PGE2 was replaced with each of six prostaglandin substrates, each of three downstream metabolites, or leukotriene B4.

3T3-L1 cells [2] = assay: Protein expression of adipogenesis-specific, PPAR-gamma target genes in 3T3-L1 cells; format: cell-based, mouse; settings: for IRS-1 protein expression: 3T3-L1 cells
Text: Also examined was the ability of 15-keto PGE2 to induce protein expression of adipogenesis-specific, PPAR-gamma target genes, i.e., IRS-1 and -2.

PPAR-gamma = assay: Luciferase reporter with PPAR-gamma ligand-binding domain fused to yeast GAL4 DNA-binding domain in 3T3-L1 cells; format: cell-based
Text: (§3) A luciferase reporter gene was transfected to 3T3-L1 cells together with the ligand-binding domain of PPAR-alpha, PPAR-gamma or PPAR-delta fused to a yeast GAL4 DNA-binding domain.

3T3-L1 cells [3] = assay: Adipogenesis in 3T3-L1 cells, lipid droplets stained with oil-red O; format: cell-based, mouse; settings: 14 μM, treated day 2 to 4 during adipogenesis, stained at day 6
Method: (§4) The effect of prostaglandin on PPAR-gamma activity in adipocytes was investigated. After treatment with a medium that induces cell differentiation, 3T3-L1 cells were treated from day 2 to 4 during adipogenesis with 14 μM 15-keto PGE2, 13,14-dihydro-15-keto PGE2 , 15-keto PGF2α, 13,14-dihydro-15-keto PGF2α, or 4.5 μm of BRL49653, a PPAR-gamma agonist. See Forman et al., Cell (1995) 83:803-812. At day 6, aggregates of lipid droplets were stained with oil-red O for observation. […] After being induced to differentiate for two days, the 3T3-L1 cells were transfected with a reporter gene.

PPAR-alpha = molecular target: T2, PPAR-alpha (Homo sapiens, UniProt Q07869); assay: Luciferase reporter with PPAR-alpha ligand-binding domain fused to yeast GAL4 DNA-binding domain in 3T3-L1 cells; format: cell-based; settings: compared with PPAR-gamma
T2 construct: expressed in transfected cells; host or cells: 3T3-L1 cells
T2 sequence (Q07869 239-466 limits assumed): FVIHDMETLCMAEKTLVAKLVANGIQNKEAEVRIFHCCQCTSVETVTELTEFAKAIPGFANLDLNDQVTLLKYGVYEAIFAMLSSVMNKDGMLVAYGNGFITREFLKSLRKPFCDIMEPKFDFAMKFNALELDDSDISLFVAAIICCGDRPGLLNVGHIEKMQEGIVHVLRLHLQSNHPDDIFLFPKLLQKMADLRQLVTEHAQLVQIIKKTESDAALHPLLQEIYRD
Text: as §3

[4] = molecular target: T1, recombinant mouse PGR-2 protein; assay: Kinetics studies of PGR-2 catalyzed conversion; format: biochemical; settings: order: 15-keto PGE2, then 15-keto PGF1α, 15-keto PGE1, 15-keto PGF2α
Method: as §1, §2
Unlike PGR/LTB4DH, PGR-2 used NADPH as a cofactor much more efficiently than NADH.

endogenous PPAR = assay: Reporter gene assay of endogenous PPAR activity in differentiating 3T3-L1 cells; format: cell-based, mouse; settings: 3T3-L1 cells induced to differentiate for two days, transfected with a reporter gene
Method: as §4

T1 sequence (Q8VDQ1 whole entry): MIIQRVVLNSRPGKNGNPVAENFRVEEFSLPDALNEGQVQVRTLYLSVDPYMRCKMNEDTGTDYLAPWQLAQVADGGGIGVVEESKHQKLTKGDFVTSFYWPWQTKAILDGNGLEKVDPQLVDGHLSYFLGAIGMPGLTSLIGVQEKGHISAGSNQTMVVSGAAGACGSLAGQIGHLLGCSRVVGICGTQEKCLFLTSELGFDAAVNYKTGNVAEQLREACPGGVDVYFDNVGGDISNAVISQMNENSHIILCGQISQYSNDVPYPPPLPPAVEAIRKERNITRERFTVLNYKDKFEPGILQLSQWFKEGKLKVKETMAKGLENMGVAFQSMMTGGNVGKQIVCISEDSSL

specific activity with PGR-2 (substrate specificity) [1]	SMILES	endogenous PPAR activity (reporter gene) (endogenous PPAR)	further results
reacted specifically with PGR-2	CCCCCC(=O)/C=C/[C@@H]1[C@@H](CCCCCCC(=O)O)[C@@H](O)C[C@H]1O [15-keto PGF1α]	–	–
no specific activity was detected	CCCCC/C=C\C[C@@H](O)/C=C/C=C/C=C\[C@@H](O)CCCC(=O)O [leukotriene B4]	–	–
reacted specifically with PGR-2	CCCCCC(=O)/C=C/[C@H]1[C@H](O)CC(=O)[C@@H]1CCCCCCC(=O)O [15-keto PGE1]	–	–
reacted specifically with PGR-2	CCCCCC(=O)/C=C/[C@@H]1[C@@H](C/C=C\CCCC(=O)O)[C@@H](O)C[C@H]1O [15-keto PGF2α]	enhanced endogenous PPAR activity significantly	activation of PPAR-gamma (GAL4 fusion, luciferase reporter) (PPAR-gamma): activated; activation of PPAR-alpha (GAL4 fusion, luciferase reporter) (PPAR-alpha): to a lesser degree
no specific activity was detected	CCCCC[C@H](O)/C=C/[C@@H]1[C@@H](C/C=C\CCCC(=O)O)[C@H](O)C[C@H]1O [PGF2β]	–	–

The next lines start with the compound.

SMILES	specific activity with PGR-2 (substrate specificity) [1]	endogenous PPAR activity (reporter gene) (endogenous PPAR)	further results
CCCCC[C@H](O)/C=C/[C@@H]1[C@@H](CC(=O)CCCCC(=O)O)[C@@H](O)C[C@H]1O [6-keto PGF1α]	no specific activity was detected	–	–
CCCCCC(=O)CCC1C(=O)CC(O)C1C/C=C\CCCC(=O)O (stereo not shown) [13,14-dihydro-15-keto PGD2]	no specific activity was detected	–	–
CC(C)Cn1c(=O)n(C)c(=O)c2[nH]cnc21 [MIX, methylisobutylxanthine]	–	–	IRS-1 protein expression (3T3-L1 cells [2]): induced IRS-1 expression
CCCCCC(=O)/C=C/[C@H]1[C@H](O)CC(=O)[C@@H]1C/C=C\CCCC(=O)O [15-keto PGE2]	–	enhanced endogenous PPAR activity significantly	activation of PPAR-gamma (GAL4 fusion, luciferase reporter) (PPAR-gamma): activated; adipogenesis (aggregates of lipid droplets, oil-red O) (3T3-L1 cells [3]): effectively enhanced adipogenesis at a level similar to BRL49653; activation of PPAR-alpha (GAL4 fusion, luciferase reporter) (PPAR-alpha): to a lesser degree; IRS-1 protein expression (3T3-L1 cells [2]): did not increase; PPAR-gamma1 and PPAR-gamma2 protein expression (3T3-L1 cells [2]; added with MIX, insulin and dexamethasone): significantly enhanced; expression of aP2, an adipocyte-specific marker (3T3-L1 cells [2]; even in the absence of MIX): strongly induced; IRS-2 expression (3T3-L1 cells [2]; in the presence of insulin and dexamethasone): enhanced the expression to a level similar to MIX; efficiency of PGR-2 catalyzed conversion (rank order) [4]: most efficiently
CCCCCC(=O)CC[C@@H]1[C@@H](C/C=C\CCCC(=O)O)[C@@H](O)C[C@H]1O [13,14-dihydro-15-keto PGF2α]	no specific activity was detected	failed to increase PPAR activity	–
CCCCC[C@H](O)/C=C/[C@@H]1[C@@H](C/C=C\CCCC(=O)O)[C@@H](O)C[C@@H]1O [11b-PGF2α]	no specific activity was detected	–	–
CCCCCC(=O)CC[C@H]1[C@H](O)CC(=O)[C@@H]1C/C=C\CCCC(=O)O [13,14-dihydro-15-keto PGE2]	no specific activity was detected	failed to increase PPAR activity	–
